Measured values published in patent US12077503B2, “Substituted cyclic amides and their use as herbicides” (FMC CORPORATION, priority 2015, dated 2024).

Experiments:
Assay type in all cases: in vivo
[1] = tested on: sedge, umbrella (small-flower umbrella sedge, Cyperus difformis); test: Test B flooded paddy test; conditions: Cyperus difformis, 250 g ai/ha, Flood; 0 to 100 scale where 0 is no effect and 100 is complete control; read-out: Sedge, Umbrella plant response rating
Procedure, shortened: (§1)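 Compound goes directly into floodwater once pots are flooded 3 cm above soil, targeting plants at two leaves; the water depth is then held for the test duration. Plants sit 13–15 d in a greenhouse and are rated visually, 100 denoting complete control.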

[2] = tested on: barnyardgrass (Echinochloa crus-galli); test: Test B flooded paddy test; conditions: Echinochloa crus-galli, Flood, 250 g ai/ha; scale of 0 to 100 where 0 is no effect and 100 is complete control; read-out: Barnyardgrass plant response rating
Procedure, shortened: as §1

[3] = tested on: ducksalad (Heteranthera limosa); test: Test B flooded paddy test; conditions: Heteranthera limosa, Flood, 250 g ai/ha; scale of 0 to 100 where 0 is no effect and 100 is complete control; read-out: Ducksalad plant response rating
Procedure, shortened: as §1

[4] = tested on: rice (Oryra sativa); test: Test B flooded paddy test; conditions: Oryza sativa, Flood, 250 g ai/ha; scale of 0 to 100 where 0 is no effect and 100 is complete control; read-out: Rice plant response rating
Procedure, shortened: as §1

[5] = tested on: ryegrass, Italian (Italian ryegrass, Lolium multiflorum); test: Test A preemergence; conditions: Lolium multiflorum, pre-emergence, 240 h, Preemergence
Procedure, shortened: (§2)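 Ratings of 0 (no effect) to 100 (complete control) come from visual comparison with untreated controls roughly 10 d after treatment. Test chemicals, formulated in a non-phytotoxic solvent mixture with surfactant, were applied either as a preemergence directed soil spray on seeded soil or postemergence to one- to two-leaf plants 2 to 10 cm tall.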

[6] = tested on: Kochia (Kochia scoparia); test: Test A preemergence; conditions: Bassia scoparia, pre-emergence, 240 h, Preemergence
Procedure, shortened: as §2

[7] = tested on: ragweed (common ragweed, Ambrosia elatior); test: Test A preemergence; conditions: Ambrosia artemisiifolia, pre-emergence, 240 h, Preemergence
Procedure, shortened: as §2

[8] = tested on: barnyardgrass (Echinochloa crus-galli); test: Test A preemergence; conditions: Echinochloa crus-galli, pre-emergence, 240 h, Preemergence
Procedure, shortened: as §2

[9] = tested on: giant foxtail (Setaria faberii); test: Test A preemergence; conditions: Setaria faberi, pre-emergence, 240 h, Preemergence
Procedure, shortened: as §2

[10] = tested on: pigweed (Amaranthus retroflexus); test: Test A preemergence; conditions: Amaranthus retroflexus, pre-emergence, 240 h, Preemergence
[11] = tested on: corn (Zea mays); test: Test A postemergence; conditions: Zea mays, post-emergence, 240 h, Postemergence
Procedure, shortened: as §2

[12] = tested on: ryegrass, Italian (Italian ryegrass, Lolium multiflorum); test: Test A postemergence; conditions: Lolium multiflorum, post-emergence, 240 h, Postemergence, read-out: Plant response rating, Ryegrass, Italian
Procedure, shortened: as §2

[13] = tested on: Kochia (Kochia scoparia); test: Test A postemergence; conditions: Bassia scoparia, post-emergence, 240 h, Postemergence, read-out: Plant response rating, Kochia
Procedure, shortened: as §2

[14] = tested on: ragweed (common ragweed, Ambrosia elatior); test: Test A postemergence; conditions: Ambrosia artemisiifolia, post-emergence, 240 h, Postemergence, read-out: Plant response rating, Ragweed
Procedure, shortened: as §2

[15] = tested on: barnyardgrass (Echinochloa crus-galli); test: Test A postemergence; conditions: Echinochloa crus-galli, post-emergence, 240 h, Postemergence, read-out: Plant response rating, Barnyardgrass
Procedure, shortened: as §2

[16] = tested on: giant foxtail (Setaria faberii); test: Test A postemergence; conditions: Setaria faberi, post-emergence, 240 h, Postemergence, read-out: Plant response rating, Foxtail, Giant
Procedure, shortened: as §2

[17] = tested on: blackgrass (Alopecurus myosuroides); test: Test A postemergence; conditions: Alopecurus myosuroides, post-emergence, 240 h, Postemergence, read-out: Plant response rating, Blackgrass
Procedure, shortened: as §2

[18] = tested on: pigweed (Amaranthus retroflexus); test: Test A postemergence; conditions: Amaranthus retroflexus, post-emergence, 240 h, Postemergence, read-out: Plant response rating, Pigweed
Procedure, shortened: as §2

[19] = tested on: wheat (Triticum aestivum); test: Test A postemergence; conditions: Triticum aestivum, post-emergence, 240 h, Postemergence, read-out: Plant response rating, Wheat
Procedure, shortened: as §2

[20] = tested on: Galium (catchweed bedstraw, Galium aparine); test: Test A postemergence; conditions: Galium, post-emergence, 240 h, Postemergence, read-out: Plant response rating, Galium
Procedure, shortened: as §2

[21] = 125 g ai/ha, visual injury after approximately 10 d, 0 to 100 scale where 0 is no effect and 100 is complete control
[22] = 31 g ai/ha, visual injury after approx. 10 d, 0 to 100 scale, 0 no effect, 100 complete control

O=C(Nc1cccc(F)c1F)[C@H]1C(=O)N(OCc2ccccc2)CC[C@@H]1c1cccc(Cl)c1 [Compound 997]
0%: pest or weed control at 250 g/ha [1] | pest or weed control at 250 g/ha [2] | pest or weed control at 250 g/ha [3] | pest or weed control at 250 g/ha [4] | pest or weed control at 125 g/ha ([5]; 125 g ai/ha, visual injury rating after approximately 10 d, read-out: Ryegrass, Italian plant response rating (0 to 100 scale, 0 is no effect, 100 is complete control)) | pest or weed control at 31 g/ha ([5]; 31 g ai/ha, 0 to 100 scale (0 no effect, 100 complete control), read-out: Plant response rating, Ryegrass, Italian) | pest or weed control at 125 g/ha ([6]; 125 g ai/ha, visual injury rating after approximately 10 d, read-out: Kochia plant response rating (0 to 100 scale, 0 is no effect, 100 is complete control)) | pest or weed control at 31 g/ha ([6]; 31 g ai/ha, 0 to 100 scale (0 no effect, 100 complete control), read-out: Plant response rating, Kochia) | pest or weed control at 125 g/ha ([7]; 125 g ai/ha, visual injury rating after approximately 10 d, read-out: Ragweed plant response rating (0 to 100 scale, 0 is no effect, 100 is complete control)) | pest or weed control at 31 g/ha ([7]; 31 g ai/ha, 0 to 100 scale (0 no effect, 100 complete control), read-out: Plant response rating, Ragweed) | pest or weed control at 125 g/ha ([8]; 125 g ai/ha, visual injury rating after approximately 10 d, read-out: Barnyardgrass plant response rating (0 to 100 scale, 0 is no effect, 100 is complete control)) | pest or weed control at 31 g/ha ([8]; 31 g ai/ha, 0 to 100 scale (0 no effect, 100 complete control), read-out: Plant response rating, Barnyardgrass) | pest or weed control at 125 g/ha ([9]; 125 g ai/ha, visual injury rating after approximately 10 d, read-out: Foxtail, Giant plant response rating (0 to 100 scale, 0 is no effect, 100 is complete control)) | pest or weed control at 31 g/ha ([9]; 31 g ai/ha, 0 to 100 scale (0 no effect, 100 complete control), read-out: Plant response rating, Foxtail, Giant) | pest or weed control at 125 g/ha ([10]; 125 g ai/ha, visual injury rating after approximately 10 d, read-out: Pigweed plant response rating (0 to 100 scale, 0 is no effect, 100 is complete control)) | pest or weed control at 31 g/ha ([10]; 31 g ai/ha, 0 to 100 scale (0 no effect, 100 complete control), read-out: Plant response rating, Pigweed) | Corn plant response rating (crop injury, 0 = no effect, 100 = complete kill) at 125 g/ha [11, 21] | Corn plant response rating (crop injury, 0 = no effect, 100 = complete kill) at 31 g/ha [11, 22] | pest or weed control at 125 g/ha [12, 21] | pest or weed control at 31 g/ha [12, 22] | pest or weed control at 125 g/ha [13, 21] | pest or weed control at 31 g/ha [13, 22] | pest or weed control at 125 g/ha [14, 21] | pest or weed control at 31 g/ha [14, 22] | pest or weed control at 125 g/ha [15, 21] | pest or weed control at 31 g/ha [15, 22] | pest or weed control at 125 g/ha [16, 21] | pest or weed control at 31 g/ha [16, 22] | pest or weed control at 125 g/ha [17, 21] | pest or weed control at 31 g/ha [17, 22] | pest or weed control at 125 g/ha [18, 21] | pest or weed control at 31 g/ha [18, 22] | plant injury at 125 g/ha [19, 21] | plant injury at 31 g/ha [19, 22] | pest or weed control at 125 g/ha [20, 21] | pest or weed control at 31 g/ha [20, 22]
